According to paper PMC5241706, “Biochemical and Structural Characterization of Selective Allosteric Inhibitors of the Plasmodium falciparum Drug Target, Prolyl-tRNA-synthetase” (ACS Infectious Diseases, 2016):
Values joined by “and” are separate entries in the source; they are usually repeats but may differ in a detail not shown here. Equal entries are not always repeated. Where two headings read alike, the source gives them in different places.

How the values were obtained:
HsHEPG2 = assay: mammalian cell line selectivity; format: cell-based; conditions: Homo sapiens; data not shown
From the text: (§1) […]. In addition to its activity and selectivity, it has good physicochemical and DMPK properties. […].

[1] = system: Plasmodium falciparum strain 3D7; assay: Plasmodium falciparum growth inhibition, SYBR green fluorescence; format: cell-based; conditions: 3D7, growth inhibition, read-out: Pf (3D7) EC50
[2] = kinetic aqueous solubility, laser nephelometry; format: physicochemical; conditions: MilliQ water with 1.0% DMSO, kinetic from dmso stock
Method: (§2) 485nm (Plouffe et al., 2008).
(§3) described (Vedadi et al., 2006).
(§4) Orange Dye (Life Technologies S-6650).
(§5) In vitro Cell Assay Data Analysis
(§6) (Patterson et al., 2013). […] An
(§7) Triplicate aliquots were transferred to a flat
(§8) Intrinsic Clearance (CLi) experiments
(§9) Test compound (0.5 µM) was
(§10) phosphate buffer, pH 7.4).
(§11) The rate of intrinsic clearance (CLi)
(§12) 52.5mg protein per g liver.
(§13) Ion homeostasis in the malaria parasite

HsProRS = biological target: T1, HsProRS (Homo sapiens, UniProt P07814); assay: luciferase ATP depletion assay, counter-screen; format: biochemical
T1 construct: made in house
T1 sequence (P07814 1007-1512 limits assumed): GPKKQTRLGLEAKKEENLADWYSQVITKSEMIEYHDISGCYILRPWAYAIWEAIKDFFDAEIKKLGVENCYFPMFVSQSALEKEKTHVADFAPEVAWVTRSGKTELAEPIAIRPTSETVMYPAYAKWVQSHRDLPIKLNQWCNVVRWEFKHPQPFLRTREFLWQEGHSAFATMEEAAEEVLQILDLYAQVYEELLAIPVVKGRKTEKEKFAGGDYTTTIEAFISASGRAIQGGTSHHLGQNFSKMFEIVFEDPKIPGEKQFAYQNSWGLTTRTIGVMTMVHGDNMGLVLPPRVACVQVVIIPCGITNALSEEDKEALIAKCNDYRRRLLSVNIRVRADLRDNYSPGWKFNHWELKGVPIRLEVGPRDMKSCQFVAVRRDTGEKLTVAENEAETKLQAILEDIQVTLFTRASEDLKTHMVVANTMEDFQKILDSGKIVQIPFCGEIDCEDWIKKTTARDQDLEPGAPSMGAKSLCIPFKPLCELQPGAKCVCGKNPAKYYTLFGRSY

PfProRS [3] = biological target: T2, PfProRS (Plasmodium falciparum, UniProt Q8I5R7); assay: ATP consumption assay with proline or ATP varied (competition); format: biochemical
T2 construct: B2, AA7–746 (minus 6 amino acids, or 99% of the ORF); made in house; host or cells: E. coli BL21(DE3)R3 Rosetta Oxford
T2 sequence (Q8I5R7 7-746): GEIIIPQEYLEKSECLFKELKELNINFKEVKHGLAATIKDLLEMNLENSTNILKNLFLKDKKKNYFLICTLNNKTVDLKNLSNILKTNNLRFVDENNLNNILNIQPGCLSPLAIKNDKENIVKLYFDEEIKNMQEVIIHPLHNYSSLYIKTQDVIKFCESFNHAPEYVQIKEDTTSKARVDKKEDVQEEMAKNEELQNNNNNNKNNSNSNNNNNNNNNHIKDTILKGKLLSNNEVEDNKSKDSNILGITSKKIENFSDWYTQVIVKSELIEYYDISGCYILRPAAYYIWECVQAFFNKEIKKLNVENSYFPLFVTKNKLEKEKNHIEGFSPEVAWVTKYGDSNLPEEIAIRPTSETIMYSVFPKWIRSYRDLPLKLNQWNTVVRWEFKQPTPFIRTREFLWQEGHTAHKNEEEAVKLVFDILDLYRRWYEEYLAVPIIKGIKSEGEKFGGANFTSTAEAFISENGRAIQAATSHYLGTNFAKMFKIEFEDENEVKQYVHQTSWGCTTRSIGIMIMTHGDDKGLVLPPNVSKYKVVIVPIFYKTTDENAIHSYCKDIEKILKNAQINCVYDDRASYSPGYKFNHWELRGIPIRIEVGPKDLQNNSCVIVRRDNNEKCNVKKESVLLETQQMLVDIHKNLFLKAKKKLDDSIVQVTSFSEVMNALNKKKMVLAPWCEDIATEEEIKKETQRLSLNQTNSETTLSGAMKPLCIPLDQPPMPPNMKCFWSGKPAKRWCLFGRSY

experimental CHI-logD = format: physicochemical; conditions: HPLC retention (chromatographic hydrophobicity index, CHI)
From the text: as §1

[4] = system: isolated 3D7 trophozoites (pHi); assay: pH assay, BCECF-loaded isolated trophozoites; conditions: TCMDC-124506 5 μM; KAE609 50 nM
[5] = intrinsic clearance in liver microsomes; format: in vitro ADME
Method: as §2, §3, §4, §5, §6, §7, §8, §9, §10, §11, §12, §13

PfProRS [6] = biological target: T2, PfProRS; assay: biochemical; format: biochemical; conditions: read-out: Pf ProRS IC50
PfProRS [7] = biological target: T2, PfProRS; assay: luciferase ATP depletion assay, HTS format; format: biochemical
PfProRS [8] = biological target: T2, PfProRS; format: binding
PfProRS [9] = biological target: T2, PfProRS; assay: aminoacylation assay ([3H]-L-proline incorporation into tRNA); format: biochemical
[10] = read-out: Percentage inhibition Pf ProRS

Structure (SMILES): Cn1nc(C(F)(F)F)c(-c2ccc(F)cc2)c1NC(=O)Nc1ccc(F)cc1 [TCMDC-124506]
- EC50 (HsHEPG2): > 50 µM
- EC50 [1]: 0.6 µM
- solubility kinetic [2]: > 250 µM
- IC50 (HsProRS): > 700 µM
- inhibition at 2.5 µM (HsProRS; at 2.5 μM, read-out: Percentage inhibition Hs ProRS): 0.3%
- inhibition at 4.9 µM (HsProRS; at 4.9 μM, read-out: Percentage inhibition Hs ProRS): 0.28%
- inhibition at 9.8 µM (HsProRS; at 9.8 μM, read-out: Percentage inhibition Hs ProRS): 0.01%
- inhibition at 19.5 µM (HsProRS; at 19.5 μM, read-out: Percentage inhibition Hs ProRS): -0.08%
- inhibition at 39 µM (HsProRS; at 39 μM, read-out: Percentage inhibition Hs ProRS): 0.26%
- inhibition at 78 µM (HsProRS; at 78 μM, read-out: Percentage inhibition Hs ProRS): 0.84%
- inhibition at 156 µM (HsProRS; at 156 μM, read-out: Percentage inhibition Hs ProRS): 0.82%
- inhibition at 313 µM (HsProRS; at 313 μM, read-out: Percentage inhibition Hs ProRS): 0.26%
- inhibition at 625 µM (HsProRS; at 625 μM, read-out: Percentage inhibition Hs ProRS): 0.12%
- inhibition at 1250 µM (HsProRS; at 1250 μM, read-out: Percentage inhibition Hs ProRS): 0.04%
- inhibitory activity for HsProRS (HsProRS; up to the limit of solubility (>1 mM)): < 40%
- mode of inhibition (PfProRS [3]): competitive allosteric inhibitor
- IC50 (PfProRS [3]; IC50 of TCMDC-124506 as a function of proline, Pro=30 M): 88 µM
- IC50 (PfProRS [3]; IC50 of TCMDC-124506 as a function of proline, Pro=60): 110 µM
- IC50 (PfProRS [3]; IC50 of TCMDC-124506 as a function of proline, Pro=120): 128 µM
- IC50 (PfProRS [3]; IC50 of TCMDC-124506 as a function of proline, Pro=240): 151 µM
- Ki (PfProRS [3]; Ki (Cheng-Prusoff, competition with ATP), intercept of IC50 vs [ATP]): 51 ± 1.6 µM
- Ki (PfProRS [3]; Ki (Cheng-Prusoff, competition with proline), intercept of IC50 vs [Proline]): 80 ± 4.9 µM
- IC50 (PfProRS [3]; TCMDC-124506 IC50 as a function of ATP, ATP=3 M): 74.4 µM
- IC50 (PfProRS [3]; TCMDC-124506 IC50 as a function of ATP, ATP=6): 103 µM
- IC50 (PfProRS [3]; TCMDC-124506 IC50 as a function of ATP, ATP=12): 145 µM
- chromatographic logD (experimental CHI-logD): 2.9
- effect on acidification after concanamycin A (100 nM) [4]: a reduction in the degree of acidification
- effect on parasite cytosolic pH (pHi) [4]: caused an increase in pHi
- mouse microsomal clearance (Cli) [5]: 1.6 mL/min/g
- IC50 (PfProRS [6]): 5 µM
- IC50 (PfProRS [7]; 75 nM ProRS, 60 μM proline, 6 μM ATP, 400 μg/mL yeast tRNA, 2 h 37 °C, read-out: PfProRS IC50): 74 µM and 73 µM
- inhibition at 2.5 µM (PfProRS [7]; [10]): -0.36%
- inhibition at 4.9 µM (PfProRS [7]; [10]): -2.4%
- inhibition at 9.8 µM (PfProRS [7]; [10]): 3.73%
- inhibition at 19.5 µM (PfProRS [7]; [10]): 10.8%
- inhibition at 39 µM (PfProRS [7]; [10]): 30.9%
- inhibition at 78 µM (PfProRS [7]; [10]): 55.8%
- inhibition at 156 µM (PfProRS [7]; [10]): 79.5%
- inhibition at 313 µM (PfProRS [7]; [10]): 80.4%
- inhibition at 625 µM (PfProRS [7]; [10]): 96.2%
- inhibition at 1250 µM (PfProRS [7]; [10]): 97%

Structure (SMILES): O=C(CC1NCCCC1O)Cn1cnc2cc(Br)c(Cl)cc2c1=O (stereo not shown) [halofuginone]
- IC50 (HsProRS; 75 nM ProRS, 60 μM proline, 6 μM ATP, 400 μg/mL yeast tRNA, 2 h 37 °C): 2 µM and 2.13 µM
- fold difference between PfProRS and HsProRS IC50 (HsProRS; HsProRS vs PfProRS): ≤ 8 fold
- inhibition at 0.02 µM (HsProRS; at 0.02 μM, read-out: Percentage inhibition Hs ProRS): 0.15%
- inhibition at 0.05 µM (HsProRS; at 0.05 μM, read-out: Percentage inhibition Hs ProRS): -0.14%
- inhibition at 0.1 µM (HsProRS; at 0.10 μM, read-out: Percentage inhibition Hs ProRS): 0.21%
- inhibition at 0.2 µM (HsProRS; at 0.20 μM, read-out: Percentage inhibition Hs ProRS): 1.95%
- inhibition at 0.39 µM (HsProRS; at 0.39 μM, read-out: Percentage inhibition Hs ProRS): 9.43%
- inhibition at 0.78 µM (HsProRS; at 0.78 μM, read-out: Percentage inhibition Hs ProRS): 24.7%
- inhibition at 1.56 µM (HsProRS; at 1.56 μM, read-out: Percentage inhibition Hs ProRS): 46.5%
- inhibition at 3.13 µM (HsProRS; at 3.13 μM, read-out: Percentage inhibition Hs ProRS): 64.1%
- inhibition at 6.25 µM (HsProRS; at 6.25 μM, read-out: Percentage inhibition Hs ProRS): 74.3%
- inhibition at 12.5 µM (HsProRS; at 12.50 μM, read-out: Percentage inhibition Hs ProRS): 85.7%
- inhibition at 25 µM (HsProRS; at 25.00 μM, read-out: Percentage inhibition Hs ProRS): 89.2%
- change in thermal stability (PfProRS [8]; full-length recombinant protein B1): no increase in stability
- shift in stability (thermal melt) (PfProRS [8]; recombinant protein B2): 6 °
- IC50 (PfProRS [9]): 0.011 µM
- IC50 (PfProRS [7]; PfProRS IC50, 75 nM ProRS, 60 μM proline, 6 μM ATP, 400 μg/mL yeast tRNA, 2 h 37 °C): 0.28 µM
- IC50 (PfProRS [7]; PfProRS IC50, luciferase ATP depletion assay): 0.275 µM
- inhibition at 0.02 µM (PfProRS [7]; [10]): -0.05%
- inhibition at 0.05 µM (PfProRS [7]; [10]): 2.49%
- inhibition at 0.1 µM (PfProRS [7]; [10]): 10.8%
- inhibition at 0.2 µM (PfProRS [7]; [10]): 34.4%
- inhibition at 0.39 µM (PfProRS [7]; [10]): 69%
- inhibition at 0.78 µM (PfProRS [7]; [10]): 90%
- inhibition at 1.56 µM (PfProRS [7]; [10]): 98.9%
- inhibition at 3.13 µM (PfProRS [7]; [10]): 99.1%
- inhibition at 6.25 µM (PfProRS [7]; [10]): 95%
- inhibition at 12.5 µM (PfProRS [7]; [10]): 93.6%
- inhibition at 25 µM (PfProRS [7]; [10]): 93.9%
